Experimental data as given in ChEMBL document CHEMBL3871290, “3-Cyano-6-(5-methyl-3-pyrazoloamino) pyridines (Part 2): A dual inhibitor of Aurora kinase and tubulin polymerization” (Bioorg Med Chem Lett, 2016).
Calls of active or inactive are those of the source. The calls are words filed in the database; no cut-off is given here.

Columns and labels:
[1] = tested on: HCT-116; test: Antitumor activity against human HCT116 cells xenografted subcutaneously in mouse assessed as tumor growth inhibition at 100 mg/kg, po qd after 14 days; format: functional, organism-based
[2] = tested on: HCT-116; test: Antitumor activity against human HCT116 cells xenografted subcutaneously in mouse assessed as tumor growth inhibition at 30 mg/kg, po qd after 14 days; format: functional
[3] = tested on: Cc1ccc(OCCNc2nc(Nc3cc(C)[nH]n3)cc(C)c2C#N)cn1; details: Homo sapiens
Description: Activity at cSRC (unknown origin)

[4] = species on record: Sus scrofa; test: Inhibition of pig brain tubulin polymerization at 10 uM in presence of GTP relative to control
[5] = species on record: Homo sapiens; test: Inhibition of Aurora kinase (unknown origin) assessed as reduction in histone H3 phosphorylation at Ser10 residue
[6] = tested on: Cc1ccc(OCCNc2nc(Nc3cc(C)[nH]n3)cc(C)c2C#N)cn1; details: Homo sapiens; remark: listed apart in the source
Description: Activity at YES (unknown origin)

Sequence of Tyrosine-protein kinase Yes (Homo sapiens), P07947 (P07947 whole entry): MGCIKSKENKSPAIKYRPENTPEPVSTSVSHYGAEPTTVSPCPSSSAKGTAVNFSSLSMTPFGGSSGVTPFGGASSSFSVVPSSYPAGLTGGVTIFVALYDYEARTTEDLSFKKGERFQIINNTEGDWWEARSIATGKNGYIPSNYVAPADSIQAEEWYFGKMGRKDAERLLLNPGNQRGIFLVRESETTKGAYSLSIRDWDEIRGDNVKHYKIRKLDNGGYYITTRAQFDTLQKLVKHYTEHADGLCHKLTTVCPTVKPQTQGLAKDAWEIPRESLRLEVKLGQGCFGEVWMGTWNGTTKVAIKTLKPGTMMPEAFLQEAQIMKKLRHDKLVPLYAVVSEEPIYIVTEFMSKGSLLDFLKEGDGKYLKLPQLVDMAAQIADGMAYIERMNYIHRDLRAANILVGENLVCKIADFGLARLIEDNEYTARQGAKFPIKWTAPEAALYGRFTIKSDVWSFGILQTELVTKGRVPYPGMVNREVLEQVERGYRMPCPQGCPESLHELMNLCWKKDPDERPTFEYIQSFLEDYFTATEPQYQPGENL

Work on `Cc1cc(Nc2cc(N3CCN(C)CC3)nc(Sc3ccc(NC(=O)C4CC4)cc3)n2)n[nH]1` yielded a TGI [1] of 68% and a TGI [2] of 60%.

Molecule “Proto-oncogene tyrosine-protein kinase Src (Homo sapiens) (from UniProt P12931)” has a Km [3] of 200 µM.

`Cc1ccc(OCCNc2nc(Nc3cc(C)[nH]n3)cc(C)c2C#N)cn1` was tested, and the inhibition [4] was 63% and the inhibition [5] was “Active”.

Work on “Tyrosine-protein kinase Yes (Homo sapiens), P07947” yielded a Km [6] of 45 µM.
